According to PMC4297247 (Molecular cancer therapeutics, 2014):

What was measured:
[1] = tested on: cell lines of the LAR subtype; settings: cited from earlier work
[2] = tested on: basal-like TNBCs; settings: cell lines and clinically; cited from earlier work
[3] = tested on: mesenchymal-like cell lines, BT549, Hs578T, and MDA-MB231; test: Kinase inhibitor screen, CellTiter Glo cell viability, one week; assay type: cell-based, human; settings: did not reach statistical significance (p = 0.12)
[4] = tested on: mesenchymal-like TNBC cell lines; settings: cited from earlier work

**Q.** For `CC(O)(CS(=O)(=O)c1ccc(F)cc1)C(=O)Nc1ccc(C#N)c(C(F)(F)F)c1` (stereo not shown) [bicalutamide], which “selective toxicity by TNBC subtype” value [1] is on record?
**A.** selectively toxic to cell lines of the LAR subtype

**Q.** With `N.N.[Cl][Pt][Cl]` [cisplatin] as the compound, how does the “toxicity by TNBC subtype” value [2] read?
**A.** more toxic to basal-like TNBCs

**Q.** For `Cc1nc(Nc2ncc(C(=O)Nc3c(C)cccc3Cl)s2)cc(N2CCN(CCO)CC2)n1` [dasatinib], which “sensitivity compared to cells of other TNBC subtypes” value [3] is on record?
**A.** more sensitive to dasatinib than cells of other TNBC subtypes

**Q.** And the “preferential toxicity by TNBC subtype” value [4]?
**A.** preferential toxicity for mesenchymal-like TNBC cell lines
